Measurements as given in patent US9102669B2, “Substituted piperidinyl-pyridazinyl derivatives useful as SCD 1 inhibitors” (Janssen Pharmaceutica NV, priority 2011, dated 2015).
Values joined by “and” are separate entries in the source; they are usually repeats but may differ in a detail not shown here. Equal entries are not always repeated. Where two headings read alike, the source gives them in different places.

What was measured:
[1] = 10-day diet-induced obese C57bl/6 mice study, body weight change; assay type: in vivo, mouse; parameters: unit not given here; conditions: DIO C57BL/6J mice, oral 30 mg/kg once a day, after 10 days of treatment
Experimental: Male DIO C57BL/6J mice from Taconic were maintained on high fat diet D12492 containing 60% kCal of mostly saturated fats (Research Diets Inc.) for 4 week from 6-week old. Test compounds were prepared in 0.5% hydroxypropyl methyl cellulose for oral dosing at 30 mg/kg once a day. After 10-days of treatment, body weight change was recorded.
Representative compounds of the present invention were tested according to the procedure as described above, with results as listed in Table 7, below. In the results presented below, * indicates a calculated p value <0.05 vs. vehicle-treated group.

[2] = 4 week Zucker fa/fa rat study, body weight; assay type: in vivo; conditions: Zucker fa/fa rats
Experimental: Male Zucker fa/fa rats were housed one rat per cage in a temperature-controlled room with 12-hour light/dark cycle. The rats were fed on regular rodent diet (Purina 5008) and allowed ad libitum access to water. The experiment was initiated at an age of 8-9 week, and at body weight of about 350 g. Test compound was prepared in 0.5% HPMC for dosing q.d at 1 mg/kg, 3 mg/kg and 10 mg/kg, as noted in the table of results below. Body weight, food intake and fed blood glucose were monitored weekly. On day 26, all rats were given with the last dose 1 hr prior to the necropsy.

[3] = target: SCD1 (Rattus norvegicus (Rat), UniProt P07308); test: SCD1 enzymatic assay in rat liver microsomes (RLM); assay type: biochemical; conditions: for inhibition at 1 µM: read-out: % Inh.@ 1 μM
In short: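 Microsomes from livers of Sprague Dawley rats after fast/fat-free re-feeding cycles (10 μg per reaction) were incubated 2 h at room temperature with 20 μM stearoyl-CoA plus ^3H-stearoyl-CoA (2 μCi/mL), ATP, CoA, NADH and glutathione in 0.1 M K-phosphate, with compound. Reactions were acid-stopped and charcoal-treated; radioactivity was counted and fitted to a sigmoidal dose-response curve.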

[4] = target: SCD1 (Homo sapiens (Human), UniProt O00767); test: SCD1 13C-palmitic acid assay in A431 cells; assay type: cell-based; conditions: read-out: A431 cells 13C-PA IC50
In short: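 A431 cells with 0.05 mg/mL human insulin in 0.1% fatty-acid-free BSA assay medium; 4 h incubation at 37 °C before KOH saponification with D4-palmitate internal standard.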

[5] = 1 μM test compound, rat liver microsomes

SCD1 (Rattus norvegicus (Rat), UniProt P07308), sequence (P07308 whole entry): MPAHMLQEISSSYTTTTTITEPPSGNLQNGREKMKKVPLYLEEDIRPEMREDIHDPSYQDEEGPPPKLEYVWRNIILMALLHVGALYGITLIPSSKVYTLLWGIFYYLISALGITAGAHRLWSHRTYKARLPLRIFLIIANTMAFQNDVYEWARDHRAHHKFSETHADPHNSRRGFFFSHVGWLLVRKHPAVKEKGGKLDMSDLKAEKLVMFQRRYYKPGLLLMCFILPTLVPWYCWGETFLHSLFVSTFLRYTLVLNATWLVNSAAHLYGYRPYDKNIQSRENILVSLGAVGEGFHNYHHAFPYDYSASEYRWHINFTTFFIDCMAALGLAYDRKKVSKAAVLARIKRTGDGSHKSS
SCD1 (Homo sapiens (Human), UniProt O00767), sequence (O00767 whole entry): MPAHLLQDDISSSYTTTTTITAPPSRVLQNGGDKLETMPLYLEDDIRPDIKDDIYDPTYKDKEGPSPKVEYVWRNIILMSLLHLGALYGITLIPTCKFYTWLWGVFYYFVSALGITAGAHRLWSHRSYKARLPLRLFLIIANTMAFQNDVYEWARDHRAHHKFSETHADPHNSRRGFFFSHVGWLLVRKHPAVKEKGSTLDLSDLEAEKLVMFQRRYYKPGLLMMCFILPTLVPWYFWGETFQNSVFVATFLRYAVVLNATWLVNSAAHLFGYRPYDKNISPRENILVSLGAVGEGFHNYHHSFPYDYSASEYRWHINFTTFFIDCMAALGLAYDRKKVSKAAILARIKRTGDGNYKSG

Cn1cc(-c2ccc(N3CCC(N4CCc5ccc(F)cc54)CC3)nn2)cn1 [Compound #11, 6-fluoro-1-(1-(6-(1-methyl-1H-pyrazol-4-yl)pyridazin-3-yl)piperidin-4-yl)indoline]
body weight change [1]: −2.1 ± 0.3 *
Body Weight Day 1 ([2]; 1 mg/kg q.d.): 373 ± 7 grams
Body Weight Day 8 ([2]; 1 mg/kg q.d.): 404 ± 13 grams
Body Weight Day 15 ([2]; 1 mg/kg q.d.): 442 ± 12 grams
Body Weight Day 22 ([2]; 1 mg/kg q.d.): 482 ± 10 grams
Body Weight Day 26 ([2]; 1 mg/kg q.d.): 496 ± 10 grams
Body Weight Day 1 ([2]; 3 mg/kg q.d.): 372 ± 6 grams
Body Weight Day 8 ([2]; 3 mg/kg q.d.): 417 ± 7 grams
Body Weight Day 15 ([2]; 3 mg/kg q.d.): 452 ± 6 grams
Body Weight Day 22 ([2]; 3 mg/kg q.d.): 484 ± 6 grams
Body Weight Day 26 ([2]; 3 mg/kg q.d.): 498 ± 6 grams
Body Weight Day 1 ([2]; 10 mg/kg q.d.): 373 ± 5 grams
Body Weight Day 8 ([2]; 10 mg/kg q.d.): 402 ± 6 grams
Body Weight Day 15 ([2]; 10 mg/kg q.d.): 430 ± 7 grams
Body Weight Day 22 ([2]; 10 mg/kg q.d.): 445 ± 9 grams
Body Weight Day 26 ([2]; 10 mg/kg q.d.): 451 ± 9 grams

OCc1cnn(-c2ccc(N3CCC(N4CCc5ccc(F)cc54)CC3)nn2)c1 [Compound #22]
body weight change [1]: 1.2 ± 0.3 *
IC50 ([3]; rat liver microsomes): 22 nM and 11 nM
inhibition at 1 µM [3]: 98%
IC50 [4]: 7 nM and 5 nM

OCc1ccc(-c2ccc(N3CCC(N4CCc5ccc(F)cc54)CC3)nn2)cn1 [Compound #39]
body weight change [1]: −2.2 ± 0.5 *
inhibition at 1 µM [3, 5]: 99%
IC50 ([3]; rat liver microsomes): 9 nM
IC50 [4]: 0.5 nM

Cn1cc(-c2ccc(N3CCC(n4ncc5ccc(F)cc54)CC3)nn2)cn1 [Compound #47, 6-fluoro-1-(1-(6-(1-methyl-1H-pyrazol-4-yl)pyridazin-3-yl)piperidin-4-yl)-1H-indazole]
body weight change [1]: −3.3 ± 0.5 *
IC50 [4]: 69 nM and 33 nM

OCCn1cc(-c2ccc(N3CCC(N4CCc5ccc(F)cc54)CC3)nn2)cn1 [Compound #49, 2-(4-(6-(4-(6-fluoroindolin-1-yl)piperidin-1-yl)pyridazin-3-yl)-1H-pyrazol-1-yl)ethanol]
body weight change [1]: 0.5 ± 0.1 *
% Inh.@ 1 μM [3, 5]: 91%
inhibition at 1 µM [3, 5]: 95%
IC50 ([3]; rat liver microsomes): 25 nM and 19 nM
IC50 [4]: 21 nM and 22 nM
